Assay results from the supplement of paper PMC4862054.

Test system: HCC1937
Assay: normalised response (% of control), CellTiter-Glo; higher = more viable cells (100 = DMSO, 0 = benzethonium chloride kill control)
Settings: incubation time: 72 h
Outline: (§1)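 The table gives the normalised signal for a single concentration in each entry. Breast cancer cell lines were seeded (20 µl suspension) into 384-well plates holding compound at 5 concentrations in 10-fold steps over a compound-specific 10,000-fold range and incubated 72 h, then read for CellTox Green fluorescence (485/520 nm) and CellTiter-Glo luminescence. Normalisation on each plate used 0.1 % DMSO (100) and a positive kill control (0).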

Row | SMILES | normalised response
1 | C/C(=C\c1csc(C)n1)[C@@H]1C[C@@H]2O[C@]2(C)CCC[C@H](C)[C@H](O)[C@@H](C)C(=O)C(C)(C)[C@@H](O)CC(=O)N1 [Ixabepilone] (0.1 nM) | 98%
2 | C=CCn1c(=O)c2cnc(Nc3ccc(N4CCN(C)CC4)cc3)nc2n1-c1cccc(C(C)(C)O)n1 [MK1775] (1 nM) | 97.9%
3 | CO[C@@H]1[C@H](N(C)C(=O)c2ccccc2)C[C@H]2O[C@]1(C)n1c3ccccc3c3c4c(c5c6ccccc6n2c5c31)C(=O)NC4 [Midostaurin] (1 nM) | 93.5%
4 | CO[C@@]12[C@H](COC(N)=O)C3=C(C(=O)C(C)=C(N)C3=O)N1C[C@@H]1N[C@@H]12 [Mitomycin C] (1 nM) | 94.6%
5 | CCNC(=O)c1noc(-c2cc(C(C)C)c(O)cc2O)c1-c1ccc(CN2CCOCC2)cc1 [NVP-AUY922] (0.1 nM) | 104%

Test system: HDQ-P1
Assay: as above
Settings: incubation time: 72 h
Outline: as §1

Row | SMILES | normalised response
6 | CC(=O)[C@]1(O)Cc2c(O)c3c(c(O)c2[C@@H](O[C@H]2C[C@H](N)[C@H](O)[C@H](C)O2)C1)C(=O)c1ccccc1C3=O [Idarubicin] (0.1 nM) | 101%
7 | C/C(=C\c1csc(C)n1)[C@@H]1C[C@@H]2O[C@]2(C)CCC[C@H](C)[C@H](O)[C@@H](C)C(=O)C(C)(C)[C@@H](O)CC(=O)N1 [Ixabepilone] (0.1 nM) | 100%
8 | C=CCn1c(=O)c2cnc(Nc3ccc(N4CCN(C)CC4)cc3)nc2n1-c1cccc(C(C)(C)O)n1 [MK1775] (1 nM) | 87.7%
9 | CO[C@@H]1[C@H](N(C)C(=O)c2ccccc2)C[C@H]2O[C@]1(C)n1c3ccccc3c3c4c(c5c6ccccc6n2c5c31)C(=O)NC4 [Midostaurin] (1 nM) | 91.2%
10 | CO[C@@]12[C@H](COC(N)=O)C3=C(C(=O)C(C)=C(N)C3=O)N1C[C@@H]1N[C@@H]12 [Mitomycin C] (1 nM) | 98.8%
11 | CCNC(=O)c1noc(-c2cc(C(C)C)c(O)cc2O)c1-c1ccc(CN2CCOCC2)cc1 [NVP-AUY922] (0.1 nM) | 102%

Test system: Hs578T
Assay: as above
Settings: incubation time: 72 h
Outline: as §1

Row | SMILES | normalised response
12 | CC(=O)[C@]1(O)Cc2c(O)c3c(c(O)c2[C@@H](O[C@H]2C[C@H](N)[C@H](O)[C@H](C)O2)C1)C(=O)c1ccccc1C3=O [Idarubicin] (0.1 nM) | 107%
13 | C/C(=C\c1csc(C)n1)[C@@H]1C[C@@H]2O[C@]2(C)CCC[C@H](C)[C@H](O)[C@@H](C)C(=O)C(C)(C)[C@@H](O)CC(=O)N1 [Ixabepilone] (0.1 nM) | 100%
14 | C=CCn1c(=O)c2cnc(Nc3ccc(N4CCN(C)CC4)cc3)nc2n1-c1cccc(C(C)(C)O)n1 [MK1775] (1 nM) | 95.8%
15 | CO[C@@H]1[C@H](N(C)C(=O)c2ccccc2)C[C@H]2O[C@]1(C)n1c3ccccc3c3c4c(c5c6ccccc6n2c5c31)C(=O)NC4 [Midostaurin] (1 nM) | 96.8%
16 | CO[C@@]12[C@H](COC(N)=O)C3=C(C(=O)C(C)=C(N)C3=O)N1C[C@@H]1N[C@@H]12 [Mitomycin C] (1 nM) | 101%
17 | CCNC(=O)c1noc(-c2cc(C(C)C)c(O)cc2O)c1-c1ccc(CN2CCOCC2)cc1 [NVP-AUY922] (0.1 nM) | 94.9%

Test system: MCF-10A
Assay: as above
Settings: incubation time: 72 h
Outline: as §1

Row | SMILES | normalised response
18 | CC(=O)[C@]1(O)Cc2c(O)c3c(c(O)c2[C@@H](O[C@H]2C[C@H](N)[C@H](O)[C@H](C)O2)C1)C(=O)c1ccccc1C3=O [Idarubicin] (0.1 nM) | 103%
19 | C/C(=C\c1csc(C)n1)[C@@H]1C[C@@H]2O[C@]2(C)CCC[C@H](C)[C@H](O)[C@@H](C)C(=O)C(C)(C)[C@@H](O)CC(=O)N1 [Ixabepilone] (0.1 nM) | 107%
20 | C=CCn1c(=O)c2cnc(Nc3ccc(N4CCN(C)CC4)cc3)nc2n1-c1cccc(C(C)(C)O)n1 [MK1775] (1 nM) | 80.6%
21 | CO[C@@H]1[C@H](N(C)C(=O)c2ccccc2)C[C@H]2O[C@]1(C)n1c3ccccc3c3c4c(c5c6ccccc6n2c5c31)C(=O)NC4 [Midostaurin] (1 nM) | 93.4%
22 | CO[C@@]12[C@H](COC(N)=O)C3=C(C(=O)C(C)=C(N)C3=O)N1C[C@@H]1N[C@@H]12 [Mitomycin C] (1 nM) | 93.2%
23 | CCNC(=O)c1noc(-c2cc(C(C)C)c(O)cc2O)c1-c1ccc(CN2CCOCC2)cc1 [NVP-AUY922] (0.1 nM) | 105%

Test system: MDA-MB-231
Assay: as above
Settings: incubation time: 72 h
Outline: as §1

Row | SMILES | normalised response
24 | CC(=O)[C@]1(O)Cc2c(O)c3c(c(O)c2[C@@H](O[C@H]2C[C@H](N)[C@H](O)[C@H](C)O2)C1)C(=O)c1ccccc1C3=O [Idarubicin] (0.1 nM) | 109%
25 | C/C(=C\c1csc(C)n1)[C@@H]1C[C@@H]2O[C@]2(C)CCC[C@H](C)[C@H](O)[C@@H](C)C(=O)C(C)(C)[C@@H](O)CC(=O)N1 [Ixabepilone] (0.1 nM) | 103%
26 | C=CCn1c(=O)c2cnc(Nc3ccc(N4CCN(C)CC4)cc3)nc2n1-c1cccc(C(C)(C)O)n1 [MK1775] (1 nM) | 90.5%
27 | CO[C@@H]1[C@H](N(C)C(=O)c2ccccc2)C[C@H]2O[C@]1(C)n1c3ccccc3c3c4c(c5c6ccccc6n2c5c31)C(=O)NC4 [Midostaurin] (1 nM) | 107%
28 | CO[C@@]12[C@H](COC(N)=O)C3=C(C(=O)C(C)=C(N)C3=O)N1C[C@@H]1N[C@@H]12 [Mitomycin C] (1 nM) | 95.1%
29 | CCNC(=O)c1noc(-c2cc(C(C)C)c(O)cc2O)c1-c1ccc(CN2CCOCC2)cc1 [NVP-AUY922] (0.1 nM) | 106%

Test system: MDA-MB-436
Assay: as above
Settings: incubation time: 72 h
Outline: as §1

Row | SMILES | normalised response
30 | CC(=O)[C@]1(O)Cc2c(O)c3c(c(O)c2[C@@H](O[C@H]2C[C@H](N)[C@H](O)[C@H](C)O2)C1)C(=O)c1ccccc1C3=O [Idarubicin] (0.1 nM) | 112%
31 | C/C(=C\c1csc(C)n1)[C@@H]1C[C@@H]2O[C@]2(C)CCC[C@H](C)[C@H](O)[C@@H](C)C(=O)C(C)(C)[C@@H](O)CC(=O)N1 [Ixabepilone] (0.1 nM) | 105%
32 | C=CCn1c(=O)c2cnc(Nc3ccc(N4CCN(C)CC4)cc3)nc2n1-c1cccc(C(C)(C)O)n1 [MK1775] (1 nM) | 85.8%
33 | CO[C@@H]1[C@H](N(C)C(=O)c2ccccc2)C[C@H]2O[C@]1(C)n1c3ccccc3c3c4c(c5c6ccccc6n2c5c31)C(=O)NC4 [Midostaurin] (1 nM) | 83%
34 | CO[C@@]12[C@H](COC(N)=O)C3=C(C(=O)C(C)=C(N)C3=O)N1C[C@@H]1N[C@@H]12 [Mitomycin C] (1 nM) | 82.4%
35 | CCNC(=O)c1noc(-c2cc(C(C)C)c(O)cc2O)c1-c1ccc(CN2CCOCC2)cc1 [NVP-AUY922] (0.1 nM) | 102%

Test system: MDA-MB-453
Assay: as above
Settings: incubation time: 72 h
Outline: as §1

Row | SMILES | normalised response
36 | CC(=O)[C@]1(O)Cc2c(O)c3c(c(O)c2[C@@H](O[C@H]2C[C@H](N)[C@H](O)[C@H](C)O2)C1)C(=O)c1ccccc1C3=O [Idarubicin] (0.1 nM) | 101%
37 | C/C(=C\c1csc(C)n1)[C@@H]1C[C@@H]2O[C@]2(C)CCC[C@H](C)[C@H](O)[C@@H](C)C(=O)C(C)(C)[C@@H](O)CC(=O)N1 [Ixabepilone] (0.1 nM) | 127%
38 | C=CCn1c(=O)c2cnc(Nc3ccc(N4CCN(C)CC4)cc3)nc2n1-c1cccc(C(C)(C)O)n1 [MK1775] (1 nM) | 90.2%
39 | CO[C@@H]1[C@H](N(C)C(=O)c2ccccc2)C[C@H]2O[C@]1(C)n1c3ccccc3c3c4c(c5c6ccccc6n2c5c31)C(=O)NC4 [Midostaurin] (1 nM) | 92.5%
40 | CO[C@@]12[C@H](COC(N)=O)C3=C(C(=O)C(C)=C(N)C3=O)N1C[C@@H]1N[C@@H]12 [Mitomycin C] (1 nM) | 97.5%
41 | CCNC(=O)c1noc(-c2cc(C(C)C)c(O)cc2O)c1-c1ccc(CN2CCOCC2)cc1 [NVP-AUY922] (0.1 nM) | 106%

Test system: MDA-MB-468
Assay: as above
Settings: incubation time: 72 h
Outline: as §1

Row | SMILES | normalised response
42 | CC(=O)[C@]1(O)Cc2c(O)c3c(c(O)c2[C@@H](O[C@H]2C[C@H](N)[C@H](O)[C@H](C)O2)C1)C(=O)c1ccccc1C3=O [Idarubicin] (0.1 nM) | 112%
43 | C/C(=C\c1csc(C)n1)[C@@H]1C[C@@H]2O[C@]2(C)CCC[C@H](C)[C@H](O)[C@@H](C)C(=O)C(C)(C)[C@@H](O)CC(=O)N1 [Ixabepilone] (0.1 nM) | 104%
44 | C=CCn1c(=O)c2cnc(Nc3ccc(N4CCN(C)CC4)cc3)nc2n1-c1cccc(C(C)(C)O)n1 [MK1775] (1 nM) | 95.2%
45 | CO[C@@H]1[C@H](N(C)C(=O)c2ccccc2)C[C@H]2O[C@]1(C)n1c3ccccc3c3c4c(c5c6ccccc6n2c5c31)C(=O)NC4 [Midostaurin] (1 nM) | 106%
46 | CO[C@@]12[C@H](COC(N)=O)C3=C(C(=O)C(C)=C(N)C3=O)N1C[C@@H]1N[C@@H]12 [Mitomycin C] (1 nM) | 90.4%
47 | CCNC(=O)c1noc(-c2cc(C(C)C)c(O)cc2O)c1-c1ccc(CN2CCOCC2)cc1 [NVP-AUY922] (0.1 nM) | 105%

Test system: MFM-223
Assay: as above
Settings: incubation time: 72 h
Outline: as §1

Row | SMILES | normalised response
48 | CC(=O)[C@]1(O)Cc2c(O)c3c(c(O)c2[C@@H](O[C@H]2C[C@H](N)[C@H](O)[C@H](C)O2)C1)C(=O)c1ccccc1C3=O [Idarubicin] (0.1 nM) | 108%
49 | C/C(=C\c1csc(C)n1)[C@@H]1C[C@@H]2O[C@]2(C)CCC[C@H](C)[C@H](O)[C@@H](C)C(=O)C(C)(C)[C@@H](O)CC(=O)N1 [Ixabepilone] (0.1 nM) | 103%
50 | C=CCn1c(=O)c2cnc(Nc3ccc(N4CCN(C)CC4)cc3)nc2n1-c1cccc(C(C)(C)O)n1 [MK1775] (1 nM) | 85.6%
51 | CO[C@@H]1[C@H](N(C)C(=O)c2ccccc2)C[C@H]2O[C@]1(C)n1c3ccccc3c3c4c(c5c6ccccc6n2c5c31)C(=O)NC4 [Midostaurin] (1 nM) | 100%
52 | CO[C@@]12[C@H](COC(N)=O)C3=C(C(=O)C(C)=C(N)C3=O)N1C[C@@H]1N[C@@H]12 [Mitomycin C] (1 nM) | 93.9%
53 | CCNC(=O)c1noc(-c2cc(C(C)C)c(O)cc2O)c1-c1ccc(CN2CCOCC2)cc1 [NVP-AUY922] (0.1 nM) | 106%

Test system: SK-BR-3
Assay: as above
Settings: incubation time: 72 h
Outline: as §1

Row | SMILES | normalised response
54 | CC(=O)[C@]1(O)Cc2c(O)c3c(c(O)c2[C@@H](O[C@H]2C[C@H](N)[C@H](O)[C@H](C)O2)C1)C(=O)c1ccccc1C3=O [Idarubicin] (0.1 nM) | 105%
55 | C/C(=C\c1csc(C)n1)[C@@H]1C[C@@H]2O[C@]2(C)CCC[C@H](C)[C@H](O)[C@@H](C)C(=O)C(C)(C)[C@@H](O)CC(=O)N1 [Ixabepilone] (0.1 nM) | 108%
56 | C=CCn1c(=O)c2cnc(Nc3ccc(N4CCN(C)CC4)cc3)nc2n1-c1cccc(C(C)(C)O)n1 [MK1775] (1 nM) | 78.3%
